Test results as given in ChEMBL document CHEMBL1201862, “PubChem BioAssay data set” (2004).
Blank lines part the entries; values can stand above or below the compound they belong to. Activity calls are given as the source filed them.

Assays:
[1] = NIH-3T3 fibroblast cytotoxicity, dose response, cytotoxicity control, cell-based, fluorescence, Alamar Blue, secondary assay (AID 2327); type: functional;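 note: NIH-3T3 mouse fibroblasts cultured with fluconazole at 8 µg/mL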
[2] = C. albicans growth with fluconazole, confirmation, fluorescence, retest (AID 2467); type: functional, cell-based
[3] = growth suppression of PTEN-null colon cells, dose response, cell-based, HCT116 PTEN knockout (AID 1047); type: functional;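 note: HCT116 colon tumor cells with PTEN knocked out; cells exposed to compound for 60 hours before readout; potency for loss of cell viability measured by luminescence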
[4] = growth suppression of beta-catenin-knockout colon cells, dose response, cell-based, HCT116, human colon tumor (AID 1045); type: functional;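 note: HCT116 colon tumor cells with beta catenin knocked out; cells exposed to compound for 60 hours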
[5] = target: T1, Polyadenylate-binding protein 1 (Homo sapiens, UniProt P11940); test: PABP1 MLLE–PAM2 interaction inhibitors, dose response, miRNA deadenylation inhibitor project, biochemical, fluorescence polarization, Cy5-PAM2 peptide, secondary (AID 602260); type: functional; details: read-out: IC50_Mean
T1 sequence (P11940 whole entry): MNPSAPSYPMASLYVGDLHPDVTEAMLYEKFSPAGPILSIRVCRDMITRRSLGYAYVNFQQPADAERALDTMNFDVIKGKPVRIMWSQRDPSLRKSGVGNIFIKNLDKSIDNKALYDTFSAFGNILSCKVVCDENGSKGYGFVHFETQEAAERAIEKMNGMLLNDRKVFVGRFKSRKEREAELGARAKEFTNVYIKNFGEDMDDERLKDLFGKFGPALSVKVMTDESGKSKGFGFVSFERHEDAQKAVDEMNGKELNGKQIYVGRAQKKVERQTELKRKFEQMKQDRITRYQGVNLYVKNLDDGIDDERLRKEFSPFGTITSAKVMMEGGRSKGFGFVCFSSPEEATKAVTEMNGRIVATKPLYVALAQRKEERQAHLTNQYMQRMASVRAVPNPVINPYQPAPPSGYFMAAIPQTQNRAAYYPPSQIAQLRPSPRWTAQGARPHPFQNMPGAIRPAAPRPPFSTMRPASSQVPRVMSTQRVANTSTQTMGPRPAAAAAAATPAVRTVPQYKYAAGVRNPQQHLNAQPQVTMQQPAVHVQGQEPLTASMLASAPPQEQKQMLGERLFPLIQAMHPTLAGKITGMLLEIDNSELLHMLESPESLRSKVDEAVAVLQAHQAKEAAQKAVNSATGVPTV

[6] = target: T1, Polyadenylate-binding protein 1; test: PABP1 MLLE–PAM2 binding inhibitor potency, dose response, biochemical, fluorescence polarization, FITC-PAM2 peptide (AID 602259); type: functional; details: read-out: IC50_Mean
[7] = Shn3 3'UTR reporter inhibitors, dose response, cell-based, Clone20 osteoblasts, firefly luciferase, cherry-picked (AID 624132); type: functional;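 note: firefly luciferase luminescence from reporter carrying the Shn3 3'UTR in osteoblasts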
[8] = HepG2 cell cytotoxicity, dose response, cytotoxicity control for Shn3 inhibitor project, CellTiter-Glo, cherry-picked (AID 624134); type: functional, cell-based
[9] = control 3'UTR Renilla luciferase suppression, dose response, counter-screen for Shn3 inhibitor project, cell-based, Clone20-Shn3RL, cherry-picked (AID 624133); type: functional
[10] = target: T2, Protein skinhead-1 (Caenorhabditis elegans, UniProt P34707); type: functional
T2 sequence (P34707 whole entry): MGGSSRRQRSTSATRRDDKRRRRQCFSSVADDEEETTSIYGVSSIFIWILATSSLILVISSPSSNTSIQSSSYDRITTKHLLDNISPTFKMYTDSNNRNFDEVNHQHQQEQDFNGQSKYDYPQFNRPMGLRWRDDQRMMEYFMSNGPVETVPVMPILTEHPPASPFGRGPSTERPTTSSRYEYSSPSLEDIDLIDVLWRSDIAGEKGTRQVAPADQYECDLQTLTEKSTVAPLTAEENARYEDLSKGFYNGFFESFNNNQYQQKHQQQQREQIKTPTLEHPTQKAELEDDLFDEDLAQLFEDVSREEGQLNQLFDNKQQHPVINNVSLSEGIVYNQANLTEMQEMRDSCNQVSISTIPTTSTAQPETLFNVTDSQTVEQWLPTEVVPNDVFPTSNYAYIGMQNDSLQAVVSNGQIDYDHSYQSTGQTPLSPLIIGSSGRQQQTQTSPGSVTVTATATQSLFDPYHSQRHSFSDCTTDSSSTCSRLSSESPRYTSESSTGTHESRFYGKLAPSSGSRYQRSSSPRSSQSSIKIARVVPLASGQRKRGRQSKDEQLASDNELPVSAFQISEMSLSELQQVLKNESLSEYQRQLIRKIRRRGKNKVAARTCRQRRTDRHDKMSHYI

[11] = inhibitors of HIV Env-driven cell fusion, dose response, cherry-pick (AID 652057); type: functional, cell-based
[12] = target: Paired box protein Pax-8 (Homo sapiens, UniProt Q06710); test: inhibitors of PAX8-driven TPO luciferase reporter, dose response, RMG-I cells, cherry-pick (AID 687027); type: functional, cell-based;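 note: luciferase reporter driven by Pax8 target thyroperoxidase promoter measured by SteadyGlo luminescence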
Sequence of Paired box protein Pax-8 (Q06710 whole entry, the tested form may be a part): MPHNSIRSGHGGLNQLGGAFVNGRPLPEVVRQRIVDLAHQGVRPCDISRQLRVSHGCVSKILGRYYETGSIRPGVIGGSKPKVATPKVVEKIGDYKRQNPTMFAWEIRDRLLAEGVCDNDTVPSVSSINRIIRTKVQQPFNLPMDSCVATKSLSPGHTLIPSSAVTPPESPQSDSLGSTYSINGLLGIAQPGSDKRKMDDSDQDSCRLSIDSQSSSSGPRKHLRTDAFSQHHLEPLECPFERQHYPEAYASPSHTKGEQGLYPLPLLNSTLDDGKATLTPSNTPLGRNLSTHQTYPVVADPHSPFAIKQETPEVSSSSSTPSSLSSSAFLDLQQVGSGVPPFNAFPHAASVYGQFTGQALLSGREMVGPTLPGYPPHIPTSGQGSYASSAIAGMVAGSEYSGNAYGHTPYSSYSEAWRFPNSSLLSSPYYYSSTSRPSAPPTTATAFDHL

[13] = target: T3, RNA-binding protein pos-1 (Caenorhabditis elegans, UniProt G5EF15); test: inhibitors of POS-1/mex-3 RNA binding, dose response, biochemical, fluorescence polarization (AID 1964);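 note: purified POS-1 fused to maltose binding protein made in E. coli; potency of compounds blocking POS-1 binding to fluorescent RNA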
T3 sequence (G5EF15 whole entry): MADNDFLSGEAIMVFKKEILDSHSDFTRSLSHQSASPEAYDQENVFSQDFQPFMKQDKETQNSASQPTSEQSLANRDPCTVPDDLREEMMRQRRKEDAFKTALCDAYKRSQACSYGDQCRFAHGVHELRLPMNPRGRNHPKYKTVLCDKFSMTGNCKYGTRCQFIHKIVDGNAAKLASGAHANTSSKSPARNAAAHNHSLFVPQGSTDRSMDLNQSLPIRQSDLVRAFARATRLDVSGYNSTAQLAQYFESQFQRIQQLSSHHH

[14] = target: T4, Zinc finger protein mex-5 (Caenorhabditis elegans, UniProt Q9XUB2); test: MEX-5/TCR-2 RNA interaction inhibitors, dose response, biochemical, C. elegans, fluorescence polarization (AID 1960)
T4 sequence (Q9XUB2 whole entry): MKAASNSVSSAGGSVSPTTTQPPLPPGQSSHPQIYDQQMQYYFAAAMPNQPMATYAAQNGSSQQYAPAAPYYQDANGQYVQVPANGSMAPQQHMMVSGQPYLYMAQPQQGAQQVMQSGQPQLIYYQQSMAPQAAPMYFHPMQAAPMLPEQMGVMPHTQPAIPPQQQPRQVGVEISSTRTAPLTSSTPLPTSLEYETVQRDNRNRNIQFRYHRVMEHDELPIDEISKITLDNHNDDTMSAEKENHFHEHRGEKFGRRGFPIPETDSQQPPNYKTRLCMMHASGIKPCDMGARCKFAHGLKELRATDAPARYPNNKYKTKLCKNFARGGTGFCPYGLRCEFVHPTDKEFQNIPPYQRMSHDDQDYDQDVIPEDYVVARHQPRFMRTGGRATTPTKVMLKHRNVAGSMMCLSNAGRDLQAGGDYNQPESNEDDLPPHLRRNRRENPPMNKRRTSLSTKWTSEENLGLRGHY

[15] = test system: INS1; test: beta cell apoptosis inhibitors, cytokine rescue, dose response, luminescence, retest (AID 449756); type: functional, cell-based; details: Rattus norvegicus;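 note: cell death triggered by IL-1 beta plus TNF-alpha plus IFN-gamma mixture; protective hits raise ATP signal compared with cytokine alone wells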
[16] = target: T5, Rac GTPase-activating protein 1 (Homo sapiens, UniProt Q9H0H5); test: MgcRacGAP GTPase-activating activity inhibitors, confirmation, biochemical, ADP Hunter fluorescence, primary and confirmatory (AID 624330); type: functional
T5 sequence (Q9H0H5 whole entry): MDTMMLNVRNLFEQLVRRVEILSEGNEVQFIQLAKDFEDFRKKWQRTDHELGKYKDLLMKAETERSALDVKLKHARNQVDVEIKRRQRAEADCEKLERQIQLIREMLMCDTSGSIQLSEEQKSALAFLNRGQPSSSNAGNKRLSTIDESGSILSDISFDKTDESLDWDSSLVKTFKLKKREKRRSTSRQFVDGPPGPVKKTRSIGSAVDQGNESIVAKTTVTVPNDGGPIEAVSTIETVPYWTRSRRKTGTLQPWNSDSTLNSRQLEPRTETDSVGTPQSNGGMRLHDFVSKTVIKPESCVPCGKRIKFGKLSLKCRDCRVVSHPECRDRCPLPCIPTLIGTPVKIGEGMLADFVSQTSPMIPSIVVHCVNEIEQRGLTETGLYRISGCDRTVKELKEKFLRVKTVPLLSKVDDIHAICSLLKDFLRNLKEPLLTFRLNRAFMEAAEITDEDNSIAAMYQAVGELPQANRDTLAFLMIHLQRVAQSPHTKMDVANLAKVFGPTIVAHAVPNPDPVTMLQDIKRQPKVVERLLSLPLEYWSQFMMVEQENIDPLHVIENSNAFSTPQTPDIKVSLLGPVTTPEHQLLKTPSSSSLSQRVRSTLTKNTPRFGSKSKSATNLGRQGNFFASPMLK

SMILES: O=C(Nc1nnc(-c2cccs2)o1)c1cccc(F)c1
EC50 [1]: > 160 µM (inactive) | EC50 [2]: 1.25 µM (active) | EC50 [3]: 10.5 µM (active) | EC50 [4]: 8.96 µM (active)

IC50 [5]: > 66 µM (inactive) | IC50 [6]: > 66 µM (inactive)
SMILES: O=C(O)c1cccc(NC(=S)NC(=O)c2ccncc2)c1

SMILES: CCOC(=O)C1(Cc2cccc(OC)c2)CCN(C/C=C/c2ccc(OC)cc2)CC1
AC50 [7]: 4.75 µM (active) | AC50 [8]: 51.6 µM (active) | AC50 [9]: 5.59 µM (active)

IC50 [10]: > 100 µM (inactive)
SMILES: Cc1ccc(SCCNC(=O)CN2C(=O)c3ccccc3S2(=O)=O)cc1

IC50 [5]: > 66 µM (inactive) | IC50 [6]: > 66 µM (inactive)
SMILES: O=C(NC(=S)Nc1ccc(S(=O)(=O)N2CCCC2)cc1)c1cccs1

SMILES: COc1ccccc1CNc1nc(NCc2ccccc2SC)c2sccc2n1
AC50 [7]: 4.48 µM (active) | AC50 [8]: 21.1 µM (active) | AC50 [9]: 5.2 µM (active)

SMILES: S=C(NCCCCN(Cc1ccc(Cl)cc1)c1ccc(Br)cn1)NCCCc1cnc[nH]1
AC50 [7]: 7.24 µM (active) | AC50 [8]: 19.5 µM (active) | AC50 [9]: 39.3 µM (active)

SMILES: O=C(Nc1nnc(COc2ccc(F)cc2)s1)c1ccco1
EC50 [1]: > 160 µM (inactive) | EC50 [2]: 3.15 µM (active)

SMILES: Cn1c(C(=O)NC2CCCCCC2)cc2c(=O)n(C)c3ccccc3c21
EC50 [3]: 24.4 µM (active) | EC50 [4]: 21.1 µM (active)

IC50 [10]: > 100 µM (inactive)
SMILES: CN(C)S(=O)(=O)NC(c1ccccc1)c1ccccc1

IC50 [5]: > 66 µM (inactive) | IC50 [6]: > 66 µM (inactive)
SMILES: CC(C)C1=C2CCCCC2NC(=O)N1 (stereo not given)

SMILES: Cn1c(COc2ccc(Br)cc2)nnc1SC1CCc2ccccc2C1=O (stereo not given)
AC50 [7]: 35.2 µM (active) | AC50 [8]: 58.9 µM (active) | AC50 [9]: 12.5 µM (active)

SMILES: Cc1ccc(-c2ccc3c(c2)O[C@@H](CN(C)Cc2cccnc2)[C@H](C)CN([C@H](C)CO)S3(=O)=O)cc1
AC50 [11]: 33.3 µM (active)

SMILES: COC(=O)C1=C(c2ccc(F)cc2OCc2ccccc2)C[C@@H]2CC[C@H]1N2C(=O)NCc1ccc(C(F)(F)F)cc1
AC50 [7]: 9.14 µM (active) | AC50 [8]: > 70 µM (inactive) | AC50 [9]: 7.19 µM (active) | AC50 [12]: 10.9 µM (active)

EC50 [13]: 8.14 µM (inconclusive) | EC50 [14]: 16.2 µM (active) | IC50 [5]: > 66 µM (inactive) | IC50 [6]: 60.3 µM (inactive)
SMILES: COc1cc(C(CC(=O)N2CCCC2)c2c(OC)cc(OC)c3ccc(=O)oc23)cc(OC)c1OC (stereo not given)

SMILES: Cc1oc(-c2ccc(Cl)cc2)nc1CN1CCCC(C(=O)N2CCN(C(=O)c3ccco3)CC2)C1 (stereo not given)
EC50 [3]: 26 µM (active) | EC50 [4]: 17.3 µM (active)

SMILES: CCCNC(=O)c1ccc2c(O)c(O)c(-c3ccc(Cl)c([N+](=O)[O-])c3)nc2c1
EC50 [1]: > 150 µM (inactive) | EC50 [2]: 2.18 µM (active) | AC50 [15]: 5.06 µM (active)

IC50 [16]: 82.2 µM (active)
SMILES: Oc1ccccc1/C=N/n1c(S)nnc1-c1ccccc1

IC50 [16]: 34.9 µM (active)
SMILES: COc1cccc2cc(C(=O)Oc3ccc(NC(C)=O)cc3)c(=O)oc12

IC50 [10]: > 100 µM (inactive)
SMILES: Cn1c(/C(C#N)=C(\O)c2ccc([N+](=O)[O-])s2)nc2ccccc21
